Series [1] is described as follows: Inhibition of cell proliferation of human DLD-1 cells expressing BRCA2-/- incubated for 7 days by Sytox green dye based analysis. It counts as functional. The conditions noted are these: DLD-1, 168 h.
Series [2] in a line: Ratio of unbound drug concentration in brain to plasma of rat. It counts as ADME, cell-free. The conditions noted are these: for Kp uu: brain and plasma (unbound), read-out: K(p,uu,brain).
The target of series [3] is hERG (KCNH2) (Homo sapiens, UniProt Q12809). Nature of the series: (§1) Inhibition of hERG transfected in CHO cells by electrophysiology. It counts as toxicity, cell-based. The settings on record: human, CHO cells transfected with hERG.
hERG (KCNH2), sequence (Q12809 whole entry): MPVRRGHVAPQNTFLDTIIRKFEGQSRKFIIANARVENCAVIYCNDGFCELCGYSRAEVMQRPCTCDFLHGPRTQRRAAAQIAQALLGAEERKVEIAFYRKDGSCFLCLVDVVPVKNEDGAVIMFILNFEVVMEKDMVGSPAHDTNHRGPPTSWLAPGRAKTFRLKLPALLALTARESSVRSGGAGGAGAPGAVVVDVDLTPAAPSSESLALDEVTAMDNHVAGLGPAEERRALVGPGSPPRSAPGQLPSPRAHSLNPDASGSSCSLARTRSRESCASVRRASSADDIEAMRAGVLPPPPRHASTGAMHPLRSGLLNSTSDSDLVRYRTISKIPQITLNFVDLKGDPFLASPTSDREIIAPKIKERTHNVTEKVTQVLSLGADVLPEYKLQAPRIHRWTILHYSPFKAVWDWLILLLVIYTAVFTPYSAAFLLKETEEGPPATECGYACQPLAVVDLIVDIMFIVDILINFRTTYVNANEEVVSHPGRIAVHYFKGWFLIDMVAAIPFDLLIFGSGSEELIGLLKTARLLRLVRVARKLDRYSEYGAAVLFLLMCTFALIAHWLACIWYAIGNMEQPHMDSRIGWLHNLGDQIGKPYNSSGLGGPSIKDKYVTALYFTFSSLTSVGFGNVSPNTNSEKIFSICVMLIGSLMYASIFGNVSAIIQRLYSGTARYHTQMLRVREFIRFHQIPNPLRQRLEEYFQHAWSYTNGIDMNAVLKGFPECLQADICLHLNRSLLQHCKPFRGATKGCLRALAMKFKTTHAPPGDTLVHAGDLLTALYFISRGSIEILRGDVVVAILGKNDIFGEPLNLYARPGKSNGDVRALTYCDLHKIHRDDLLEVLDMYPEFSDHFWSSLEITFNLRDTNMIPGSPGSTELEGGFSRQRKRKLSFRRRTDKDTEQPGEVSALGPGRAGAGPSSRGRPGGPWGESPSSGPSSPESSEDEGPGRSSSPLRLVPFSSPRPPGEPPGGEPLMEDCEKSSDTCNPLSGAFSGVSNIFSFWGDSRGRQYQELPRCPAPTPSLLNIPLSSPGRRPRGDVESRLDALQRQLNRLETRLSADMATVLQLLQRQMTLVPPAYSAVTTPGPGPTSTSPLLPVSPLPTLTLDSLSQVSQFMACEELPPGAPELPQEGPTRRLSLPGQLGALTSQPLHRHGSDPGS
Series [4] relates to MDR1 (P-gp), BCRP. Description: Efflux ratio in MDCK-MDR1-BCRP cells. It counts as ADME, cell-based, Canis lupus familiaris. The conditions noted are these: dog.
Series [5] is described as follows: Solubility of compound at pH 7.4. It counts as physicochemical. The settings on record: buffer.
Series [6] in a line: Lipophilicity, log D of compound at pH 7.4. The settings on record: buffer. It counts as physicochemical.
Series [7] can be described thus: Intrinsic clearance in human liver microsomes. It counts as ADME, Microsome. The settings on record: read-out: CLH. On the technique in general: Microsomes from liver hold many membrane-bound enzymes, among them those of drug oxidation.
For series [8], the target named is Voltage-gated inwardly rectifying potassium channel KCNH2 (Homo sapiens, UniProt Q12809). The description is as §1. It counts as toxicity, cell-based.
Voltage-gated inwardly rectifying potassium channel KCNH2, sequence (Q12809 whole entry): as above
For series [9], the target named is Poly [ADP-ribose] polymerase 1 (Homo sapiens, UniProt P09874). Description: Inhibition of N-terminal 6His-tagged full-length recombinant human PARP1 by fluorescence anisotropy assay.
Poly [ADP-ribose] polymerase 1, sequence (P09874 whole entry): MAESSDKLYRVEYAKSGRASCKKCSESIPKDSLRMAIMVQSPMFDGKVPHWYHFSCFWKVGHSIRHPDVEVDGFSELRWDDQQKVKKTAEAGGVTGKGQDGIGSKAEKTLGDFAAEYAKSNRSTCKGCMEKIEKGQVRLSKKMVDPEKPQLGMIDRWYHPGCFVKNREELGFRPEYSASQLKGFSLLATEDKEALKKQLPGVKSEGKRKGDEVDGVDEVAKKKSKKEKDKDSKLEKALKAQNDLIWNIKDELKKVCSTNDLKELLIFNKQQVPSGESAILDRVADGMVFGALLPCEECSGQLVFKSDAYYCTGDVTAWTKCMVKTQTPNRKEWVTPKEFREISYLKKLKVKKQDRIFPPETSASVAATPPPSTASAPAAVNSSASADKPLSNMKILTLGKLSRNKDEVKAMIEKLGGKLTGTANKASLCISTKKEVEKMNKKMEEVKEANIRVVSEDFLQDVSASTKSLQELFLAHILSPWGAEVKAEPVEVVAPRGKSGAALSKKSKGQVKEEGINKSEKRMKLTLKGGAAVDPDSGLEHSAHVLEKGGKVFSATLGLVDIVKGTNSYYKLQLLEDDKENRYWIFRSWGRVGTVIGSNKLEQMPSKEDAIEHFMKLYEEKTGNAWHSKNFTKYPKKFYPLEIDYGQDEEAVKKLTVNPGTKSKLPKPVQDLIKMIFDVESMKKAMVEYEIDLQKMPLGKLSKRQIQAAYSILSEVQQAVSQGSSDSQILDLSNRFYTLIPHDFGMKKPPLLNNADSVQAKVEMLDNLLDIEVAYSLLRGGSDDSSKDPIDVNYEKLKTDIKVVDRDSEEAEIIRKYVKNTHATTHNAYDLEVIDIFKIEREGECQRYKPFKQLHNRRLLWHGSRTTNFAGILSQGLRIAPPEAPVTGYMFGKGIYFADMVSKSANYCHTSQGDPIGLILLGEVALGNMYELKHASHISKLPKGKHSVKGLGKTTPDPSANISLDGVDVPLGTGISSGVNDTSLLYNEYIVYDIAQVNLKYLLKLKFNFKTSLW
In series [10] the target is Poly [ADP-ribose] polymerase 2 (Homo sapiens, UniProt Q9UGN5). Description: Inhibition of N-terminal 6His-tagged full-length recombinant human PARP2 by fluorescence anisotropy assay. (In general: In fluorescence polarisation assays a small probe gives low polarisation when free and higher when bound to something large.)
Poly [ADP-ribose] polymerase 2, sequence (Q9UGN5 whole entry): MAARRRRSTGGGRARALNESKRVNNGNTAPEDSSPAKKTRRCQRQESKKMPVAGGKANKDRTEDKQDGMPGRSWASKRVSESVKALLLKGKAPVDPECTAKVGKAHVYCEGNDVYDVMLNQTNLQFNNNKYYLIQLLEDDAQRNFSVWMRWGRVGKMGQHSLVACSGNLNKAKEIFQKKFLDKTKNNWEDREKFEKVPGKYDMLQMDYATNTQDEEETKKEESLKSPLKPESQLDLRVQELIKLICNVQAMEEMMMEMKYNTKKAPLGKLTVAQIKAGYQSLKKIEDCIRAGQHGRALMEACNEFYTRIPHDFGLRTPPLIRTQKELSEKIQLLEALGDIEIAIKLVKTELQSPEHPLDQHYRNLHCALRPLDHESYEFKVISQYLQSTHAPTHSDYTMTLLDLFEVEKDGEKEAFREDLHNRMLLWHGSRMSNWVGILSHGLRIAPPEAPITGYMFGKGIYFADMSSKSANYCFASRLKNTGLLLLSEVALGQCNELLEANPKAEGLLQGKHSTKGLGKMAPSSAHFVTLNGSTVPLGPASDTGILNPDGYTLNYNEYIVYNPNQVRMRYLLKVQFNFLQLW

The values that follow come from ChEMBL document CHEMBL6078698, “Discovery of 6-Fluoro-5-{4-[(5-fluoro-2-methyl-3-oxo-3,4-dihydroquinoxalin-6-yl)methyl]piperazin-1-yl}-N-methylpyridine-2-carboxamide (AZD9574): A CNS-Penetrant, PARP1-Selective Inhibitor” (J Med Chem, 2024).

Each structure is given as a SMILES string. Converted amounts (≈) assume the structure as drawn.

As usually defined, the IC50 is the concentration at which inhibition is half-maximal. With `CCc1cc2cnc(CN3CCN(c4ccc(C(=O)NC)nc4)CC3)cc2[nH]c1=O`, the half-maximal inhibitory concentration (IC50) in [1] was 3 nM.
On to `CCc1nc2ccc(CN3CCN(c4ccc(C(=O)NC)nc4)CC3)cc2[nH]c1=O`, for which the Kp uu in series [2] was found to be 0.05.
As a reminder, the efflux ratio is the permeability from basolateral to apical divided by that in the opposite direction, in the common usage. On to `CCc1cc2ccc(CN3CCN(c4ccc(C(=O)NC)nc4)CC3)cc2[nH]c1=O`, for which the IC50 in series [3] stood at 21000 nM; in series [1] it was 4 nM. Further, the efflux ratio in series [4] was 2.8. Also, in [2], the Kp uu was 0.1.
The term solubility denotes the dissolved amount per volume that the medium holds. Low readings indicate little dissolved substance, high ones much dissolved substance. Broadly, the logD is the decadic logarithm of the distribution of all forms, ionised or not, between an organic phase and buffer at a given pH. High values mean higher lipophilicity, low ones lower lipophilicity. As to `CCc1nc2ccc(CN3CCN(c4ccc(C(=O)NC)nc4Cl)CC3)cc2[nH]c1=O`, in series [4], the efflux ratio turned out to be 6.7. Also, in series [5], the concentration in solution (solubility) came to 8 µM (≈ 3.53 µg/mL). For the same molecule, the IC50 in [1] turned out to be 1 nM. Moreover, the pH-dependent lipophilicity (logD) in series [6] was 3. In addition, the microsomal CLint in [7] was 10 µL/min/mg.
On to `CCc1nc2ccc(CN3CCN(c4ccc(C(=O)NC)nc4F)CC3)cc2[nH]c1=O`, for which the efflux ratio in series [4] turned out to be 2. In addition, the concentration in solution in series [5] (solubility) came to 4 µM (≈ 1.7 µg/mL). For the same molecule, the Kp uu in series [2] was 0.1. Besides, the IC50 in [1] turned out to be 1 nM. In series [6], this molecule came in with a pH-dependent lipophilicity (logD) of 2.7. Moreover, in series [7], the microsomal CLint came out at 8 µL/min/mg.
Turning to `CCc1nc2ccc(CN3CCN(c4ccc(C(=O)NC)nc4C)CC3)cc2[nH]c1=O`, the efflux ratio in series [4] worked out at 2.2. In [5], the concentration in solution (solubility) came to 13 µM (≈ 5.47 µg/mL). Further, the IC50 in series [1] is 2 nM. This molecule showed a logD in [6] of 2.9. The microsomal CLint in series [7] turned out to be 10 µL/min/mg.
Take `CCc1cc2ccc(CN3CCN(c4ccc(C(=O)NC)nc4C)CC3)cc2[nH]c1=O`: the IC50 was found to be 17000 nM in series [8], 5 nM in series [9], 2 nM in [1] and 1500 nM in series [10]. Besides, in series [5], the solubility turned out to be 3 µM (≈ 1.26 µg/mL). In series [6], this molecule returned a log distribution coefficient (logD) of 3.3. In series [7], the microsomal CLint is 19 µL/min/mg.
In the case of `CCc1nc2ccc(CN3CCN(c4ccc(F)nc4C)CC3)cc2[nH]c1=O`, the IC50 in series [8] turned out to be 11000 nM; in series [9], 5 nM; in [1], 10 nM; in series [10], 53000 nM. In [4], the efflux ratio is 1.3. Further, the concentration in solution in series [5] (solubility) was 30 µM (≈ 11.4 µg/mL). Also, the Kp uu in series [2] worked out at 0.36. In series [6], this molecule returned a logD of 3.3. Also, the microsomal CLint in series [7] came to 13 µL/min/mg.
For the molecule `CCc1nc2ccc(CN3CCN(c4ccc(C(=O)NC)nc4F)CC3)c(F)c2[nH]c1=O`, the IC50 in series [3] was over 40000 nM; in [1], 5 nM. The molecule further showed a solubility in series [5] of under 11 µM. In addition, the “K(p,uu,brain)” value in [2] (brain) came out at 0.43. In series [6], this molecule showed a log distribution coefficient (logD) of 2.6. The microsomal CLint in series [7] was under 5 µL/min/mg.
`CCc1nc2ccc(CN3CCN(c4cnc(F)cc4C)CC3)cc2[nH]c1=O`: the IC50 in series [8] was 23000 nM; in series [9], 11 nM; in series [1], 13 nM; in [10] it was over 67000 nM. Also, in [4], the efflux ratio came out at 1. This molecule also gave a solubility in series [5] of 9 µM (≈ 3.43 µg/mL). For the same molecule, in [2], the Kp uu came out at 0.2. In series [6], this molecule registered a log distribution coefficient (logD) of 3.3. In addition, the microsomal CLint in [7] stood at 19 µL/min/mg.
In turn, `CCc1nc2ccc(CN3CCN(c4ccc(C(=O)NC)nc4F)CC3)c(C)c2[nH]c1=O` gave a solubility in series [5] of under 2 µM. The concentration for half-maximal inhibition (IC50) in [1] was 12 nM; in [10] it was over 100000 nM. Further, in [6], the logD was 3.1. The microsomal CLint in [7] is under 3 µL/min/mg.
Turning to `CCc1nc2ccc(CN3CCN(c4ccc(C(=O)NC)nc4F)CC3)c(Cl)c2[nH]c1=O`, the IC50 was over 40000 nM in [3] and 17 nM in [1]. Besides, the efflux ratio in series [4] was determined as 0.4. This molecule also yielded a solubility in [5] of 20 µM (≈ 9.18 µg/mL). Also, the logD in series [6] was 3.1. In series [7], the microsomal CLint turned out to be 10 µL/min/mg.
